According to patent publication US9770026B2, “Substituted pyrimidine compound and uses thereof” (Shenyang Sinochem Agrochemicals R&D Co., Ltd., priority 2012, dated 2017):

Key:
[1] = system: corn rust; test: protectant activity in vivo against corn rust; conditions: for control effect against corn rust (%): 400 mg/L; for control effect against corn rust (%) / pest or weed control at 6.25 µg/mL / pest or weed control at 25 µg/mL / pest or weed control at 100 µg/mL / pest or weed control at 400 µg/mL: protectant activity; for pest or weed control at 6.25 µg/mL / pest or weed control at 25 µg/mL / pest or weed control at 100 µg/mL / pest or weed control at 400 µg/mL: Zea mays, 168 h; for pest or weed control at 6.25 µg/mL: read-out: control effect against corn rust (%), 6.25 mg/L; for pest or weed control at 25 µg/mL: read-out: control effect against corn rust (%), 25 mg/L; for pest or weed control at 100 µg/mL: read-out: control effect against corn rust (%), 100 mg/L; for pest or weed control at 400 µg/mL: read-out: control effect against corn rust (%), 400 mg/L
[2] = system: wheat powdery mildew; test: protectant activity in vivo against wheat powdery mildew; conditions: for control effect against wheat powdery mildew (%): 400 mg/L; for pest or weed control at 6.25 µg/mL: read-out: control effect against wheat powdery mildew (%), 6.25 mg/L; for pest or weed control at 25 µg/mL: read-out: control effect against wheat powdery mildew (%), 25 mg/L; for pest or weed control at 100 µg/mL: read-out: control effect against wheat powdery mildew (%), 100 mg/L; for pest or weed control at 400 µg/mL: read-out: control effect against wheat powdery mildew (%), 400 mg/L
[3] = system: Diamond back moth; test: insecticidal activity against diamond back moth, airbrush spray; assay type: in vivo; conditions: for Insecticidal activity against diamond back moth (%) / pest or weed control at 600 µg/mL: 600 mg/L; for control (test results against diamond back moth): 600 ppm
In short: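 Airbrush leaf-disc spray test: both faces of 2 cm cabbage discs received 0.5 ml of test solution at 0.7 kg/cm^2. Solutions were made in acetone:methanol (1:1) and brought to concentration with 0.1% Tween 80 in water. Ten second-instar larvae per disc, triplicates, were held at 25° C and 60˜70% R.H., with mortality recorded at 72 hrs.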

[4] = system: armyworm; test: bioactivity test against armyworm, airbrush spray; assay type: in vivo; conditions: for Insecticidal activity against armyworm (%) / pest or weed control at 600 µg/mL: 600 mg/L; for control (test results against armyworm): 600 ppm
[5] = system: cucumber downy mildew; test: protectant activity in vivo against cucumber downy mildew; conditions: protectant activity; for pest or weed control at 25 µg/mL / pest or weed control at 50 µg/mL / pest or weed control at 100 µg/mL / pest or weed control at 400 µg/mL: Cucumis sativus, 168 h; for pest or weed control at 25 µg/mL: read-out: control effect against cucumber downy mildew (%), 25 mg/L; for pest or weed control at 50 µg/mL: read-out: control effect against cucumber downy mildew (%), 50 mg/L; for pest or weed control at 100 µg/mL: read-out: control effect against cucumber downy mildew (%), 100 mg/L; for pest or weed control at 400 µg/mL: read-out: control effect against cucumber downy mildew (%), 400 mg/L
[6] = system: carmine spider mite; test: bioactivity test against carmine spider mite, airbrush spray; assay type: in vivo
In short: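 Broadbean seedlings infested with adult mites were sprayed with compound (acetone/methanol stock diluted in 0.1% Tween 80 water) by airbrush at 0.7 kg/cm^2, 0.5 ml. Three replicates were run. Mortality was scored after 72 hrs.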

[7] = system: Green peach aphids (Myzus Persicae Sulzer); test: bioactivity test against green peach aphid, airbrush foliar spray; assay type: in vivo; conditions: for Insecticidal activity against peach aphid (%) / pest or weed control at 600 µg/mL: contrastive test; for pest or weed control at 600 µg/mL: read-out: Insecticidal activity against peach aphid (%)
In short: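 Death rate was scored at 48 hrs, held at 25±1 C and 60±5% RH, following airbrush foliar spray (0.5 mL, 10 psi) onto cabbage leaf discs bearing about 15-30 aphids. Test solutions: compound dissolved in 1:1 acetone:methanol, brought to concentration with 0.1% tween 80 water.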

[8] = Triticum aestivum, 168 h, protectant activity
[9] = 72 h, read-out: Insecticidal activity against armyworm (%)
[10] = Myzus persicae, foliar, 48 h, 600 mg/L
[11] = Tetranychus cinnabarinus, 72 h, 600 mg/L, contrastive test, read-out: Insecticidal activity against carmine spider mite (% )
[12] = 600 ppm, mortality after 72 hrs
[13] = 600 ppm, death rate after 48 hrs

CCc1ncnc(NC(C)c2ccc(Oc3ccccc3)nc2)c1Cl (stereo not drawn) [CK8, reference compound]
control effect against corn rust (%) [1]: 50%
control effect against wheat powdery mildew (%) ([2]; protectant activity): 0%
Insecticidal activity against diamond back moth (%) [3]: 33%
Insecticidal activity against armyworm (%) [4]: 17%
control effect against cucumber downy mildew (%) ([5]; 25 mg/L): 75%
control effect against cucumber downy mildew (%) ([5]; 50 mg/L): 80%
control effect against cucumber downy mildew (%) ([5]; 100 mg/L): 95%
control effect against cucumber downy mildew (%) ([5]; 400 mg/L): 98%
Insecticidal activity against carmine spider mite (% ) ([6]; 600 mg/L, contrastive test): 54%
Insecticidal activity against peach aphid (%) ([7]; 600 mg/L): 0%

CCc1ncnc(NC(=O)Cc2ccc(Oc3ncc(C(F)(F)F)cc3Cl)cc2)c1Cl [CK16, reference compound]
control effect against corn rust (%) [1]: 0%
control effect against wheat powdery mildew (%) ([2]; protectant activity): 70%
Insecticidal activity against diamond back moth (%) [3]: 0%
Insecticidal activity against armyworm (%) [4]: 0%
control effect against cucumber downy mildew (%) ([5]; 400 mg/L): 85%
Insecticidal activity against carmine spider mite (% ) ([6]; 600 mg/L, contrastive test): 0%
Insecticidal activity against peach aphid (%) ([7]; 600 mg/L): 64%

Cc1ncnc(NCc2ccc(Oc3ncc(C(F)(F)F)cc3Cl)cc2)c1Cl [CK23, reference compound]
pest or weed control at 6.25 µg/mL [1]: 0%
pest or weed control at 25 µg/mL [1]: 0%
pest or weed control at 100 µg/mL [1]: 0%
pest or weed control at 400 µg/mL [1]: 100%
control effect against wheat powdery mildew (%) ([2]; protectant activity): 100%
pest or weed control at 6.25 µg/mL [2, 8]: 0%
pest or weed control at 25 µg/mL [2, 8]: 0%
pest or weed control at 100 µg/mL [2, 8]: 0%
pest or weed control at 600 µg/mL ([3]; 72 h): 0%
pest or weed control at 600 µg/mL [4, 9]: 0%
control effect against cucumber downy mildew (%) ([5]; 400 mg/L): 100%
pest or weed control at 25 µg/mL [5]: 0%
pest or weed control at 50 µg/mL [5]: 0%
pest or weed control at 100 µg/mL [5]: 0%
Insecticidal activity against carmine spider mite (% ) ([6]; 600 mg/L, contrastive test): 64%
pest or weed control at 600 µg/mL [7, 10]: 0%

Cc1ncnc(NC(C)c2ccc(Oc3ncc(C(F)(F)F)cc3Cl)cc2)c1Cl (stereo not drawn) [CK27, reference compound]
pest or weed control at 6.25 µg/mL [1]: 30%
pest or weed control at 25 µg/mL [1]: 90%
pest or weed control at 100 µg/mL [1]: 100%
pest or weed control at 400 µg/mL [1]: 100%
pest or weed control at 400 µg/mL [2, 8]: 80%
pest or weed control at 600 µg/mL ([3]; 72 h): 0%
pest or weed control at 600 µg/mL [4, 9]: 29%
pest or weed control at 25 µg/mL [5]: 0%
pest or weed control at 50 µg/mL [5]: 0%
pest or weed control at 100 µg/mL [5]: 0%
pest or weed control at 400 µg/mL [5]: 100%
pest or weed control at 10 µg/mL ([6]; Tetranychus cinnabarinus, 72 h, 10 mg/L, contrastive test, read-out: Insecticidal activity against carmine spider mite (% )): 18%
pest or weed control at 100 µg/mL ([6]; Tetranychus cinnabarinus, 72 h, 100 mg/L, contrastive test, read-out: Insecticidal activity against carmine spider mite (% )): 100%
pest or weed control at 600 µg/mL [6, 11]: 100%
pest or weed control at 600 µg/mL [7, 10]: 0%

Cc1ncnc(NCc2ccc(Oc3c(Cl)cc([N+](=O)[O-])cc3Cl)cc2)c1Cl [CK65, reference compound]
pest or weed control at 400 µg/mL [1]: 0%
pest or weed control at 400 µg/mL [2, 8]: 0%
pest or weed control at 10 µg/mL ([3]; 72 h, 10 mg/L): 5%
pest or weed control at 100 µg/mL ([3]; 72 h, 100 mg/L): 35%
pest or weed control at 600 µg/mL ([3]; 72 h): 86%
pest or weed control at 600 µg/mL [4, 9]: 0%
pest or weed control at 400 µg/mL [5]: 0%
pest or weed control at 600 µg/mL [6, 11]: 0%
pest or weed control at 600 µg/mL [7, 10]: 0%

CCc1ncnc(NCc2ccc(Oc3c(Cl)cc([N+](=O)[O-])cc3Cl)cc2)c1Cl [CK66, reference compound]
pest or weed control at 400 µg/mL [1]: 0%
pest or weed control at 400 µg/mL [2, 8]: 0%
pest or weed control at 600 µg/mL ([3]; 72 h): 0%
pest or weed control at 600 µg/mL [4, 9]: 0%
pest or weed control at 400 µg/mL [5]: 0%
pest or weed control at 600 µg/mL [6, 11]: 0%
pest or weed control at 600 µg/mL [7, 10]: 0%

CCc1ncnc(NCCc2ccc(Oc3ccc(C(F)(F)F)cc3)cc2)c1Cl.Cl [II-19334]
protectant activity against corn rust in vivo ([1]; 400 ppm): 100%
protectant activity against wheat powdery mildew in vivo ([2]; 25 ppm): 100%
protectant activity against wheat powdery mildew in vivo ([2]; 100 ppm): 100%
protectant activity against wheat powdery mildew in vivo ([2]; 400 ppm): 100%
pest or weed control at 1.6 µg/mL ([2]; Triticum aestivum, 168 h, read-out: control effect against wheat powdery mildew (%), 1.6 mg/L, protectant activity): 60%
pest or weed control at 6.25 µg/mL [2, 8]: 100%
pest or weed control at 25 µg/mL [2, 8]: 100%
pest or weed control at 100 µg/mL [2, 8]: 100%
pest or weed control at 400 µg/mL [2, 8]: 100%
pest or weed control at 6.25 ppm ([2]; Triticum aestivum, 168 h, read-out: protectant activity against wheat powdery mildew in vivo, 6.25 ppm): 100%
control (test results against diamond back moth) ([3]; mortality after 72 hrs): 100%
pest or weed control at 100 ppm ([3]; 72 h, 100 ppm, mortality after 72 hrs, read-out: control (test results against diamond back moth)): 100%
control (test results against armyworm) ([4]; mortality after 72 h): 100%
pest or weed control at 10 µg/mL ([4]; 72 h, 10 mg/L, read-out: Insecticidal activity against armyworm (%)): 44%
pest or weed control at 100 µg/mL ([4]; 72 h, 100 mg/L, read-out: Insecticidal activity against armyworm (%)): 84%
pest or weed control at 600 µg/mL [4, 9]: 100%
pest or weed control at 100 ppm ([4]; 72 h, 100 ppm, mortality after 72 h): 80 to 99%
Insecticidal activity against carmine spider mite (% ) ([6]; 2.5 mg/L): 87%
Insecticidal activity against carmine spider mite (% ) ([6]; 5 mg/L): 100%
Insecticidal activity against carmine spider mite (% ) ([6]; 10 mg/L, contrastive test): 100%
Insecticidal activity against carmine spider mite (% ) ([6]; 100 mg/L, contrastive test): 100%
Insecticidal activity against carmine spider mite (% ) ([6]; 600 mg/L, contrastive test): 100%
control against carmine spider mite ([6]; 10 ppm, mortality after 72 hrs): 100%
control against carmine spider mite ([6]; 100 ppm, mortality after 72 hrs): 100%
control against carmine spider mite [6, 12]: 100%
pest or weed control at 2.5 ppm ([6]; Tetranychus cinnabarinus, 72 h, 2.5 ppm, mortality after 72 hrs): 80 to 99%
pest or weed control at 5 ppm ([6]; Tetranychus cinnabarinus, 72 h, 5 ppm, mortality after 72 hrs): 100%
Insecticidal activity against peach aphid (%) ([7]; 1.25 mg/L): 67%
Insecticidal activity against peach aphid (%) ([7]; 2.5 mg/L): 83%
Insecticidal activity against peach aphid (%) ([7]; 5 mg/L): 96%
Insecticidal activity against peach aphid (%) ([7]; 10 mg/L): 100%
Insecticidal activity against peach aphid (%) ([7]; 100 mg/L): 100%
Insecticidal activity against peach aphid (%) ([7]; 600 mg/L): 100%
control (test results against green peach aphid) ([7]; 10 ppm, death rate after 48 hrs): 100%
control (test results against green peach aphid) ([7]; 100 ppm, death rate after 48 hrs): 100%
control (test results against green peach aphid) [7, 13]: 100%
pest or weed control at 2.5 ppm ([7]; Myzus persicae, foliar, 48 h, 2.5 ppm, death rate after 48 hrs): 80 to 99%

Cc1ncnc(NCCc2ccc(Oc3cccc(C(F)(F)F)c3)nc2)c1Cl [III-21]
protectant activity against corn rust in vivo ([1]; 100 ppm): 100%
protectant activity against corn rust in vivo ([1]; 400 ppm): 100%
protectant activity against wheat powdery mildew in vivo ([2]; 400 ppm): 100%
control (test results against diamond back moth) ([3]; mortality after 72 hrs): 100%
control (test results against armyworm) ([4]; mortality after 72 h): 100%
control against carmine spider mite [6, 12]: 100%
control (test results against green peach aphid) [7, 13]: 100%
